# Target: T1, Prostacyclin Receptors (IP Receptors) of Human Thrombocyte Membranes (Homo sapiens, UniProt P43119)
# T1 construct: Thrombocyte membranes are obtained by centrifuging 50 ml human blood; tissue Maco Pharma, Langen; host or cells: human thrombocyte (platelet) membranes prepared from buffy coats
# Experiment: Binding to prostacyclin receptors (IP receptors) of human thrombocyte membranes, 3H-Iloprost displacement
# Conditions: 3 nM 3H-Iloprost, 60 min, room temperature
# Protocol: B-1. Studies of Binding to Prostacyclin Receptors (IP Receptors) of Human Thrombocyte Membranes
# Thrombocyte membranes are obtained by centrifuging 50 ml human blood (Buffy coats with CDP Stabilizer, from Maco Pharma, Langen) for 20 min at 160×g. Remove the supernatant (platelet-rich plasma, PRP) and then centrifuge again at 2000×g for 10 min at room temperature. Resuspend the sediment in 50 mM tris(hydroxymethyl)aminomethane, which has been adjusted to a pH of 7.4 with 1 N hydrochloric acid, and store at −20° C. overnight. On the next day, centrifuge the suspension at 80 000×g and 4° C. for 30 min. Discard the supernatant. Resuspend the sediment in 50 mM tris(hydroxymethyl)aminomethane/hydrochloric acid, 0.25 mM ethylene diamine tetraacetic acid (EDTA), pH 7.4, and then centrifuge once again at 80 000×g and 4° C. for 30 min. Take up the membrane sediment in binding buffer (50 mM tris(hydroxymethyl)-aminomethane/hydrochloric acid, 5 mM magnesium chloride, pH 7.4) and store at −70° C. until the binding test.
# For the binding test, incubate 3 nM ^3H-Iloprost (592 GBq/mmol, from AmershamBioscience) for 60 min with 300-1000 μg/ml human thrombocyte membranes per charge (max. 0.2 ml) in the presence of the test substances at room temperature. After stopping, add cold binding buffer to the membranes and wash with 0.1% bovine serum albumin. After adding Ultima Gold Scintillator, quantify the radioactivity bound to the membranes using a scintillation counter. The nonspecific binding is defined as radioactivity in the presence of 1 μM Iloprost (from Cayman Chemical, Ann Arbor) and is as a rule <25% of the bound total radioactivity. The binding data (IC50 values) are determined using the program GraphPad Prism Version 3.02.
# T1 sequence (P43119 whole entry): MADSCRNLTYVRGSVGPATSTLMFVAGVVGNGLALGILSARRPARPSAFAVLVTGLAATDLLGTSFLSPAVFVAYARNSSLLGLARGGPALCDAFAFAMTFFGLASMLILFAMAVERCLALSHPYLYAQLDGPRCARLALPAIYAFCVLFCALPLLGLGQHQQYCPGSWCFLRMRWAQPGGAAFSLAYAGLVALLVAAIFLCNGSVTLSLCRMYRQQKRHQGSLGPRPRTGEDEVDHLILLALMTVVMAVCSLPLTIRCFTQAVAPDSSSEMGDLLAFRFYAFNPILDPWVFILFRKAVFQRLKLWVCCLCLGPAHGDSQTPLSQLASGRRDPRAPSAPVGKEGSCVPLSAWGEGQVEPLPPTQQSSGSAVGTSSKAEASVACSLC
row,IC50 [nM],SMILES
1,470,"COC(=O)CCCCCNC(=O)c1c(C)oc(-c2ccccc2)c1-c1ccc(OC)cc1 [Example 4, Methyl 6-({[4-(4-methoxyphenyl)-2-methyl-5-phenylfuran-3-yl]carbonyl}amino)hexanoater]"
2,138,CCc1ccc(-c2c(-c3ccccc3)oc(C)c2C(=O)NCCCCCC(=O)O)cc1 [Example 18]
3,438,COc1ccc(-c2c(-c3ccccc3)oc(C)c2C(=O)Nc2cccc(OCC(=O)O)c2)cc1 [Example 20]
4,315,COc1ccc(-c2c(-c3ccccc3)oc(C)c2C(=O)O[C@H](C)CCCCC(=O)O)cc1 [Example 21]
5,476,COc1ccc(-c2c(-c3ccccc3)oc(C)c2C(=O)NC(C)CCCCC(=O)O)cc1 (stereo not drawn) [Example 24]
6,670,COc1ccc(-c2c(-c3ccccc3)oc(C)c2C(=O)N[C@H](C)CCCCC(=O)O)cc1 [Example 26]

# From patent publication US20110054017A1, “SUBSTITUTED FURANS AND THEIR USE” (priority 2008, published 2011)
